Source: PMC10144242, “Design, Synthesis, In Vitro, and In Silico Insights of 5-(Substituted benzylidene)-2-phenylthiazol-4(5H)-one Derivatives: A Novel Class of Anti-Melanogenic Compounds” (Molecules, 2023)

Key:
Assay type in all cases: cell-based, murine
[1] = biological target: T1, B16F10 cellular tyrosinase (Mus musculus, UniProt P11344); assay: Cellular anti-tyrosinase activity assay in IBMX/α-MSH-stimulated cells; details: 72 h; for cellular tyrosinase inhibitory activity: IBMX + α-MSH; for effect on cellular tyrosinase activity enhanced by stimulators: B16F10, 5, 10, 20 µM, IBMX 200 µM + α-MSH 1 µM
T1 construct: the anti-tyrosinase effects of these derivatives were investigated using B16F10 cells; host or cells: B16F10 murine melanoma cells
T1 sequence (P11344 19-533): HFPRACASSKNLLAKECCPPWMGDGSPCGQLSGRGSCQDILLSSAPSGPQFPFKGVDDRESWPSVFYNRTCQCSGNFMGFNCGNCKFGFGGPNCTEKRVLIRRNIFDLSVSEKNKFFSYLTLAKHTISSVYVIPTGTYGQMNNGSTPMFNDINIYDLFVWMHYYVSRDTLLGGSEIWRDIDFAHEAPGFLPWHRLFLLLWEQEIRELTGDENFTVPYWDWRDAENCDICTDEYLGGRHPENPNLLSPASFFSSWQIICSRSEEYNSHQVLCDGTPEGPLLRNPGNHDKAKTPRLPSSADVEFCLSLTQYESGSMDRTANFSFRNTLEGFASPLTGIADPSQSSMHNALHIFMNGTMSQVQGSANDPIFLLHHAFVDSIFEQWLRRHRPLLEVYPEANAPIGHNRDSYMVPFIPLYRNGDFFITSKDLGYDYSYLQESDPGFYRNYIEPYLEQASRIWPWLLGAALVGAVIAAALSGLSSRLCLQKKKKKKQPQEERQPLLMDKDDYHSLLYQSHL
Experimental: To examine the origin of the anti-melanogenic effects of (Z)-BPT derivatives 1 and 2, the anti-tyrosinase effects of these derivatives were investigated using B16F10 cells. […] After 72 h of incubation, the effects of 1 and 2 on cellular tyrosinase activity were analyzed.
Briefly, B16F10 melanoma cells were seeded in a 6-well plate at a density of 1 × 10^5 cells/well and allowed to adhere to the bottom of each well under identical conditions to the cell culture. […] After incubation for 1 h, the tyrosinase activity of the cells was increased by treatment with 200 µM IBMX and 1 µM α-MSH. The cells were incubated for 72 h under identical conditions to cell culture before being rinsed twice with PBS, exposed to a 100 µL lysis buffer solution consisting of 90 µL phosphate buffer (50 mM) at pH 6.5, 5 µL PMSF (2 mM), and 5 µL Triton X-100 (20%), and then incubated for 30 min at −80 °C. The cell lysates were placed into microcentrifuge tubes after defrosting and they were centrifuged at 12,000 rpm at 4 °C for 30 min. The supernatants (80 µL) of the lysates were combined with 20 µL of 10 mM L-DOPA in a 96-well plate. Using a microplate reader used for the melanin content assay, the mixture’s absorbances were measured every 10 min for 1 h at 37 °C and 492 nm. Each experiment was performed independently in triplicates.
Figure 8 Anti-tyrosinase activities of (Z)-BPT derivatives 1 and 2 in B16F10 cells. […] (A) Derivative 1 and (B) derivative 2. Data are presented as the mean ± standard error of the mean. ^### p < 0.001; * p < 0.05, ** p < 0.01, and *** p < 0.001.

[2] = system: B16F10 cells; assay: Cell viability / cytotoxicity, EZ-Cytox assay; details: concentrations ≤ 20 µM, 48 and 72 h
Experimental: Before investigating their inhibitory effects on B16F10 cells, the viability of (Z)-BPT derivatives 1–3 was examined in B16F10 cells.
To determine the cell viability, six different concentrations (0, 1, 2, 5, 10, and 20 µM) of (Z)-BPT derivatives 1–3 were used, and the results were examined at two time points (48 and 72 h). […] Based on the cell viability results, the concentrations for cell-based assays related to the melanin production level and cellular tyrosinase activity were determined.
Cytotoxicity studies of (Z)-BPT derivatives 1–3 were performed on B16F10 melanoma cells using the previously established EZ-Cytox (EZ-3000, DoGenBio, Seoul, Republic of Korea) test, and cytotoxicity studies of (Z)-BPT derivatives 1–3 were conducted on B16F10 melanoma cells. Briefly, B16F10 cells were seeded in a 96-well plate at a density of 1 × 10^4 cells/well and cultivated at 37 °C for 24 h in a humid environment with 5% CO2. […] The cells were then incubated at 37 °C for 2 h after 10 µL of the EZ-Cytox solution had been added to each well. To determine the cell viability, the absorbance of each well was measured at 450 nm using a microplate reader (VersaMax^TM, Molecular Devices, Sunnyvale, CA, USA). Each assay was performed in triplicates.
Figure 6 Effects of (Z)-BPT derivatives 1–3 on cell viability in B16F10 cells. Cytotoxic effects were measured using an EZ-Cytox assay at six different concentrations (0, 1, 2, 5, 10, and 20 µM) of 1–3. (A) Derivative 1; (B) Derivative 2; (C) Derivative 3. *** p < 0.001 for non-treated cells vs. cells treated with 3.

[3] = system: B16F10 cells; assay: Melanin content (anti-melanogenesis) assay in IBMX/α-MSH-stimulated cells; details: 72 h; for effect on cellular melanin content: B16F10, 20 µM, IBMX + α-MSH; for effect on cellular melanin content increased by stimulators: B16F10, 5, 10, 20 µM, IBMX 200 µM + α-MSH 1 µM
Experimental: Cells were exposed to four different concentrations (0, 5, 10, and 20 µM) of 1 and 2 prior to treatment with stimulators (3-isobutyl-1-methylxanthine (IBMX, 200 µM), and α-melanocyte stimulating hormone (α-MSH, 1 µM)). After 72 h of incubation, the effects of 1 and 2 on melanin production were determined. Cellular melanin levels were assessed by measuring melanin levels in cell lysates.
The melanin content assay standard procedure was used to investigate the anti-melanogenic effect of (Z)-BPT derivatives 1 and 2 with a few minor modifications. Briefly, B16F10 melanoma cells were seeded in each well of a 6-well plate at a density of 1 × 10^5 cells/well and allowed to adhere to the well bottom under conditions that were identical to those used for cell culture. […] For 72 h, B16F10 cells were incubated at 37 °C in a humid environment containing 5% CO2 after being treated with IBMX and α-MSH. To determine the intracellular melanin content, B16F10 cells stimulated with IBMX and α-MSH for 72 h were rinsed twice with PBS and incubated in 200 µL 1N-NaOH solution including 10% dimethyl sulfoxide (DMSO) at 60 °C. The cell lysates were transferred to a 96-well plate after an hour of incubation, and the absorbance of the melanin content was calculated using a VersaMax^TM microplate reader (Molecular Devices, Sunnyvale, CA, USA) to determine intracellular melanin levels. Each experiment was performed independently in triplicates.
Figure 7 Effects of (Z)-BPT derivatives 1 and 2 on cellular melanin levels in B16F10 cells. […] (A) Derivative 1 and (B) derivative 2.

Compound | cellular tyrosinase inhibitory activity ([1]; B16F10, 20 µM) | effect on cellular tyrosinase activity enhanced by stimulators [1] | cytotoxicity [2] | effect on cellular melanin content [3] | effect on cellular melanin content increased by stimulators [3] | cellular tyrosinase inhibitory activity ([1]; B16F10, 5 µM)
O=C1N=C(c2ccccc2)S/C1=C\c1ccc(O)cc1 [Compound 1, (Z)-5-(4-Hydroxybenzylidene)-2-phenylthiazol-4(5H)-one] | stronger inhibitory activity than kojic acid | dose-dependently and significantly decreased | did not show any perceptible cytotoxicity | more effectively than kojic acid | significantly and dose-dependently diminished | 
O=C1N=C(c2ccccc2)S/C1=C\c1ccc(O)cc1O [Compound 2, (Z)-5-(2,4-Dihydroxybenzylidene)-2-phenylthiazol-4(5H)-one] | reduced the cellular tyrosinase activity to the levels observed in the untreated control | dose-dependently and significantly decreased | did not show any perceptible cytotoxicity | below those of the non-treated control | significantly and dose-dependently diminished | comparable to that of 20 µM kojic acid
